According to PMC12373846, “Hemoglobin as a pseudoperoxidase and drug target for oxidative stress-related diseases” (Signal Transduction and Targeted Therapy, 2025):
Several values for one entry are separate records, joined by “and”; a condition that tells them apart may be missing. Equal values may be shown once. Read-outs that look alike come from different tables or passages of the source.

Columns and labels:
[1] = target: T1, PKCalpha (h) (Homo sapiens, UniProt P17252); assay: SafetyScreen87 panel; type: biochemical; details: 1.00E-06, read-out: % Inhibition of Control Specific Binding (1st, 2nd, Mean)
T1 construct: purchased Eurofins Discovery (Cerep, France)
Description: (§1) The possibility of KDS12025 on kinase off-target, the KINOMEscan panel of scanEDGE assay was conducted in DiscoverX (CA, USA) using a site-directed competition binding with the test compounds. The assay results are given in Supplementary Table 4 and experimental information is available on the DiscoverX web page (www.discoverx.com). Moreover, the Delta SafetyScreen87 panel assay was conducted in Eurofins Discovery (Cerep, France). The assay results are given in Supplementary Table 5 and experimental information is available on the DiscoverX web page (https://www.eurofinsdiscoveryservices.com).

[2] = target: T2, PDE3A (h) (Homo sapiens, UniProt Q14432); assay: SafetyScreen87 panel; type: biochemical
T2 construct: purchased Eurofins Discovery (Cerep, France)
T2 sequence (Q14432 whole entry): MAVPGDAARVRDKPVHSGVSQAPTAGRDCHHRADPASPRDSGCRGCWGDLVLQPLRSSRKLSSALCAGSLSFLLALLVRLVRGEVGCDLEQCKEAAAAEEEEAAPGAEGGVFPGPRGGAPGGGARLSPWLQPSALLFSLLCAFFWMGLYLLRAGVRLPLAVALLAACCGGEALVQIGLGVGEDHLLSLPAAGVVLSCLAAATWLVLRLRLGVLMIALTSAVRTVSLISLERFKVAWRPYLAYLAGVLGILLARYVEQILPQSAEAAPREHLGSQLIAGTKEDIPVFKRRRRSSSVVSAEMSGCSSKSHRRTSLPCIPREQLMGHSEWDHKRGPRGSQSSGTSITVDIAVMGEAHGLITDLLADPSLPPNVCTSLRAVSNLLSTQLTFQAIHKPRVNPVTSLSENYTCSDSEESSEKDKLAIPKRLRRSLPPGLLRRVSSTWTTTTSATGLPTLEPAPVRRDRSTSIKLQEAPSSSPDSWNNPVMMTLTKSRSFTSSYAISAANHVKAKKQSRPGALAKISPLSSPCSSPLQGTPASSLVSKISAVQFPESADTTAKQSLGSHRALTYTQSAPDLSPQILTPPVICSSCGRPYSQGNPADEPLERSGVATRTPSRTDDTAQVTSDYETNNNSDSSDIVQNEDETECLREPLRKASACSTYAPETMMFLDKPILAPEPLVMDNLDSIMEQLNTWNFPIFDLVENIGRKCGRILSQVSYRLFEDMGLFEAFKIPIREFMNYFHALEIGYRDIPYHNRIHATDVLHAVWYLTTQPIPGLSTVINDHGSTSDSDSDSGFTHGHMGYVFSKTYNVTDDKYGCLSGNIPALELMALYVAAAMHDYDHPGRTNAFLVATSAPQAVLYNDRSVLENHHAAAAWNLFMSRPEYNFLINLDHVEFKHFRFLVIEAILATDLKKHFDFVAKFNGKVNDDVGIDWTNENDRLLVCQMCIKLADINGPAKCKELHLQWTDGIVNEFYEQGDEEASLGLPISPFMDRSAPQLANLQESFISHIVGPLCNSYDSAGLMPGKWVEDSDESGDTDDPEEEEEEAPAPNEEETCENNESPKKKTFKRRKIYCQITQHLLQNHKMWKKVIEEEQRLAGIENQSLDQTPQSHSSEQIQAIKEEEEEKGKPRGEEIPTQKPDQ
Description: as §1

[3] = target: T3, COX1(h) (Homo sapiens, UniProt P23219); assay: SafetyScreen87 panel; type: biochemical; details: 1.00E-06, read-out: % Inhibition of Control Specific Binding (1st, 2nd, Mean)
T3 construct: Eurofins Discovery (Cerep, France) SafetyScreen87 panel
Description: as §1

[4] = target: T4, IRK (h) (InsR) (Homo sapiens, UniProt P06213); assay: SafetyScreen87 panel; type: biochemical
T4 construct: purchased Eurofins Discovery (Cerep, France)
Description: as §1

[5] = target: T5, MAO-B (h) recombinant enzyme (Homo sapiens, UniProt P27338); assay: SafetyScreen87 panel; type: biochemical; details: 1.00E-06, read-out: % Inhibition of Control Specific Binding (1st, 2nd, Mean)
T5 construct: purchased Eurofins Discovery (Cerep, France)
T5 sequence (P27338 whole entry): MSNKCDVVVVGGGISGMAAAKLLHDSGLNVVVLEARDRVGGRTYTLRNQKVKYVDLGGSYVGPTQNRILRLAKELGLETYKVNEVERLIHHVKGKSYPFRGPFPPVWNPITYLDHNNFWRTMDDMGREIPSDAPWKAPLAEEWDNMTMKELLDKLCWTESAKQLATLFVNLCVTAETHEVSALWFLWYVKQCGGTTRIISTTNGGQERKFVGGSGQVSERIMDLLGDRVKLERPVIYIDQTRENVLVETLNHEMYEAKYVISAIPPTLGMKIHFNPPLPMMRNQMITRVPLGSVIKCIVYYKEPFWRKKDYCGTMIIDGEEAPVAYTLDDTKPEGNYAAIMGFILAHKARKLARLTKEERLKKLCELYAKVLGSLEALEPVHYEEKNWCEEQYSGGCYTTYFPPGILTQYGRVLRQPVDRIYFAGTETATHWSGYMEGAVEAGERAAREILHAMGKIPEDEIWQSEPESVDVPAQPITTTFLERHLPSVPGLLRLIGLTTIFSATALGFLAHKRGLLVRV
Description: as §1

[6] = target: T6, Lck kinase (h) (Homo sapiens, UniProt P06239); assay: SafetyScreen87 panel; type: biochemical; details: 1.00E-06, read-out: % Inhibition of Control Specific Binding (1st, 2nd, Mean)
T6 construct: purchased Eurofins Discovery (Cerep, France)
T6 sequence (P06239 whole entry): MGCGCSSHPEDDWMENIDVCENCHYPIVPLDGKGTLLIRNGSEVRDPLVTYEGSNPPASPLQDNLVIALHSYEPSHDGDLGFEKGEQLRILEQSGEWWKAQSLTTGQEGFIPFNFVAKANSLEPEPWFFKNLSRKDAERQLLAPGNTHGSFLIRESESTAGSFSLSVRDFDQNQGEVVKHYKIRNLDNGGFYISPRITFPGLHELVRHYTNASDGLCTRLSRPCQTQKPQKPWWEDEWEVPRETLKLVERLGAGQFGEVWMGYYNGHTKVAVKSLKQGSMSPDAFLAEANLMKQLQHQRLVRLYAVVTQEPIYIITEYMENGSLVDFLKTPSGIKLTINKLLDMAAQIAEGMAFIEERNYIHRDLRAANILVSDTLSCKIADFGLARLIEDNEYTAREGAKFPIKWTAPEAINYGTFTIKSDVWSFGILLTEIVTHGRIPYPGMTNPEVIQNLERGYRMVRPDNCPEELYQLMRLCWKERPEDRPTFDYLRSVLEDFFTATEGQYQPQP
Description: as §1

[7] = target: T7, ACE (h) (Homo sapiens, UniProt P12821); assay: SafetyScreen87 panel; type: biochemical; details: 1.00E-06, read-out: % Inhibition of Control Specific Binding (1st, 2nd, Mean)
T7 construct: purchased Eurofins Discovery (Cerep, France)
Description: as §1

[8] = target: T8, COX2(h) (Homo sapiens, UniProt P35354); assay: SafetyScreen87 panel; type: biochemical; details: 1.00E-06, read-out: % Inhibition of Control Specific Binding (1st, 2nd, Mean)
T8 construct: purchased Eurofins Discovery (Cerep, France)
T8 sequence (P35354 18-604): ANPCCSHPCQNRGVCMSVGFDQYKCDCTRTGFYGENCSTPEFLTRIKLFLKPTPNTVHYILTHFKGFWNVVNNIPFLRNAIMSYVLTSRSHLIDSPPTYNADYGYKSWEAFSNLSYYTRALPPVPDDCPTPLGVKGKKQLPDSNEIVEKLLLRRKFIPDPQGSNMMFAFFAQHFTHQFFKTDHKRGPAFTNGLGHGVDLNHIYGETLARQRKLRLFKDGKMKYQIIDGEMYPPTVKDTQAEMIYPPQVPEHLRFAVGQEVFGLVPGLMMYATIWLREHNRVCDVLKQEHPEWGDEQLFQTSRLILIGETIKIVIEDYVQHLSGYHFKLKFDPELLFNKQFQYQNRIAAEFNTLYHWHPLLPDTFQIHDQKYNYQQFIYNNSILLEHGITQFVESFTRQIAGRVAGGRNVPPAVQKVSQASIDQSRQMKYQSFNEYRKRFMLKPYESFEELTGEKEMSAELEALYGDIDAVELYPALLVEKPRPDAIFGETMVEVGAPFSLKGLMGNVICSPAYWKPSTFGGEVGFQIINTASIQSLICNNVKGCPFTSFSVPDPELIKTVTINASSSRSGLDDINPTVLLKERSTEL
Description: as §1

[9] = tested on: ATPase (Na+/K+); assay: SafetyScreen87 panel; type: biochemical; details: 1.00E-06; read-out: % Inhibition of Control Specific Binding (1st, 2nd, Mean)
Description: as §1

[10] = target: T9, acetylcholinesterase (h) (Homo sapiens, UniProt P22303); assay: SafetyScreen87 panel; type: biochemical; details: 1.00E-06, read-out: % Inhibition of Control Specific Binding (1st, 2nd, Mean)
T9 construct: purchased Eurofins Discovery (Cerep, France)
T9 sequence (P22303 32-614): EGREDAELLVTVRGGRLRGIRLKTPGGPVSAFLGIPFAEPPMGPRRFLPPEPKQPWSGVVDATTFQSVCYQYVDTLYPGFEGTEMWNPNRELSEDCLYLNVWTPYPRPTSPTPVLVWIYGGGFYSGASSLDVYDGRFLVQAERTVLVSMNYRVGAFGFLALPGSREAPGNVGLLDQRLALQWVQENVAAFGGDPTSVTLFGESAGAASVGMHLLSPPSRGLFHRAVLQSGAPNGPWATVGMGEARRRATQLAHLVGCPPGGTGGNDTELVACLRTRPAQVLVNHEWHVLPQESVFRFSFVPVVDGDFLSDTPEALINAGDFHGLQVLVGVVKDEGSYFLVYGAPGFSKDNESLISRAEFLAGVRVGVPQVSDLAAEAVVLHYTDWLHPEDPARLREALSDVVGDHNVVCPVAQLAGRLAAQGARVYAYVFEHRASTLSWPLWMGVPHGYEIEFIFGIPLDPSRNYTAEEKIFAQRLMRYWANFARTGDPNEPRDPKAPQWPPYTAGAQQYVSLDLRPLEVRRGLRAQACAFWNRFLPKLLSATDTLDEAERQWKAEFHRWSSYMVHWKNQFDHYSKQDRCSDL
Description: as §1

[11] = target: T10, PDE4D2 (h) (Homo sapiens, UniProt Q08499); assay: SafetyScreen87 panel; type: biochemical
T10 construct: purchased Eurofins Discovery (Cerep, France)
T10 sequence (Q08499 303-809 limits assumed): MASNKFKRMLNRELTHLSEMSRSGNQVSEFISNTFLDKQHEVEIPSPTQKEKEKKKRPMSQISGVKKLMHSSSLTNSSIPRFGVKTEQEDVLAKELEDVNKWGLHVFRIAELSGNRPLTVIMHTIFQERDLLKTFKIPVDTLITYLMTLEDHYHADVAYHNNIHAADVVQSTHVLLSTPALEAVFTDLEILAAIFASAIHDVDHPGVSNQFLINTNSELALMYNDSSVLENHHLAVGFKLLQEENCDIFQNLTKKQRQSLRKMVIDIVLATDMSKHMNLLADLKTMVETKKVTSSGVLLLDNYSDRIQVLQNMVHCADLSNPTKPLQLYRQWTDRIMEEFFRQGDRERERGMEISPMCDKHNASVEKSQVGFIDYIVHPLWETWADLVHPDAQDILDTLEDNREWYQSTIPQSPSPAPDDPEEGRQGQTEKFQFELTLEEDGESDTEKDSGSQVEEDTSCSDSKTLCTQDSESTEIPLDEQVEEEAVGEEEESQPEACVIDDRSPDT
Description: as §1

[12] = target: T11, cathepsin G (h) (Homo sapiens, UniProt P08311); assay: SafetyScreen87 panel; type: biochemical; details: 1.00E-06, read-out: % Inhibition of Control Specific Binding (1st, 2nd, Mean)
T11 construct: purchased Eurofins Discovery (Cerep, France)
T11 sequence (P08311 21-255): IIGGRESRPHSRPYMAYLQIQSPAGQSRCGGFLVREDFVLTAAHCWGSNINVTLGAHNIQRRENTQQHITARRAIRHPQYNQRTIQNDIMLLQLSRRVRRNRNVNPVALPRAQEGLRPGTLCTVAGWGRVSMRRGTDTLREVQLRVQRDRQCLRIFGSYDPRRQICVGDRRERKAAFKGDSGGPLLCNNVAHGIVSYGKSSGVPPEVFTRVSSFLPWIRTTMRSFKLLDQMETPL
Description: as §1

[13] = tested on: purified mouse RBCs; assay: Isolated red blood cell H2O2 assay; type: cell-based; details: 1 µM H2O2
Description: RBCs were isolated following a modified version of the protocol described by Hanson et al. (2008). Whole blood was collected from male ICR mice (5–6 weeks old) via retro-orbital bleeding under isoflurane anesthesia. Blood was transferred using heparin-coated capillaries into EDTA-coated microcentrifuge tubes and centrifuged at 500 x g for 10 min. Plasma and buffy coat were removed, and the RBC pellet was washed three times with phosphate-buffered saline (PBS) containing 2% fetal bovine serum (FBS) to remove leukocytes and plasma components. The final RBC suspension was adjusted to 5 x 10^3 cells/µL, and cell concentration was verified using an automated hematology analyzer (Horiba Microsemi LC-662).
H2O2 was quantified using the ROS-Glo H2O2 Assay kit (Promega) according to the manufacturer’s protocol. RBCs were dispensed into white 96-well plates at a final volume 70 µL per well. KDS12025 was tested at final concentrations of 0.01, 0.1, and 1 µM, and co-treated with 1 µM H2O2. The ROS-Glo substrate was added simultaneously to all wells. Plates were incubated for 10 min at 37°C. After incubation, ROS-Glo detection reagent was added directly to each well. Plates were then incubated for 20 min at room temperature. Luminescence was measured using a microplate reader (SpectraMax) according to kit settings. Relative luminescence units (RLU) were background-subtracted and normalized to the RBC+ H2O2 only control group. All conditions were tested in triplicate. Results present the combined average of two independent experiments; each performed with the same experimental layout and controls.

[14] = 1.00E-06; read-out: % Inhibition of Control Specific Binding (1st, 2nd, Mean)
[15] = read-out: % Inhibition of Control Specific Binding (1st, 2nd, Mean); 1.00E-06

SMILES: CNc1ccc(NCCc2ccccc2OC)cc1.Cl [KDS12025, N^1-(2-methoxyphenethyl)-N^4-methylbenzene-1,4-diamine hydrochloride salt]
- activity ([1]; mean): 104%
- activity [1]: 105% and 103%
- activity [2, 14]: 89.8%
- activity [2, 15]: 87.1% and 92.4%
- activity ([3]; mean): 59.3%
- activity [3]: 62.5% and 56.1%
- activity [4, 14]: 109%
- activity [4, 15]: 100%
- activity ([5]; mean): 119%
- activity [5]: 116% and 121%
- activity ([6]; mean): 94.1%
- activity [6]: 95.9% and 92.2%
- activity ([7]; mean): 100%
- activity [7]: 101% and 99.4%
- activity ([8]; mean): 43.8%
- activity [8]: 42.2% and 45.3%
- activity [9]: 97.8%
- activity ([10]; mean): 91.7%
- activity [10]: 92.6% and 90.8%
- activity [11, 14]: 95.3% and 102%
- activity [11, 15]: 98.7%
- activity ([12]; mean): 100%
- activity [12]: 97.2% and 103%
- H2O2 level normalized to RBC+H2O2 only (Fig. S20t) ([13]; 0.01 µM): 37.08±7.98
- H2O2 level normalized to RBC+H2O2 only (Fig. S20t) ([13]; 0.1 µM): 20.61±3.586
- H2O2 level normalized to RBC+H2O2 only (Fig. S20t) ([13]; 1 µM): 7.116±4.5
